Test results reported in PubChem BioAssay (NCI).
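Tested at 5 concentrations; 48 h exposure; 96-well plates; endpoints linearly interpolated, else capped at highest concentration. TGI is the concentration that stops growth completely.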

Key:
Assay in all cases: NCI tumour cell line growth inhibition, 48 h
KM12 colon = tested on: KM12 colon
NCI-H522 lung = tested on: NCI-H522 lung
T-47D breast = tested on: T-47D breast
786-0 renal = tested on: 786-0 renal
MOLT-4 leukemia = tested on: MOLT-4 leukemia
HCT-116 colon = tested on: HCT-116 colon
HOP-62 NSCLC = tested on: HOP-62 NSCLC
OVCAR-4 ovarian = tested on: OVCAR-4 ovarian
MDA-N = tested on: MDA-N
SR leukemia = tested on: SR leukemia
SF-295 CNS = tested on: SF-295 CNS
MDA-MB-231 breast = tested on: MDA-MB-231 breast
UACC-62 melanoma = tested on: UACC-62 melanoma
SK-MEL-2 melanoma = tested on: SK-MEL-2 melanoma
RPMI-8226 leukemia = tested on: RPMI-8226 leukemia
PC-3 prostate = tested on: PC-3 prostate
MCF7 breast = tested on: MCF7 breast
HT29 colon = tested on: HT29 colon
SNB-19 CNS = tested on: SNB-19 CNS
CAKI-1 renal = tested on: CAKI-1 renal
SN12C renal = tested on: SN12C renal
HCT-15 colon = tested on: HCT-15 colon
A549 NSCLC = tested on: A549 NSCLC
IGROV1 ovarian = tested on: IGROV1 ovarian
TK-10 renal = tested on: TK-10 renal
K-562 leukemia = tested on: K-562 leukemia
HCC-2998 colon = tested on: HCC-2998 colon
SK-MEL-28 melanoma = tested on: SK-MEL-28 melanoma
SK-OV-3 ovarian = tested on: SK-OV-3 ovarian
MDA-MB-435 = tested on: MDA-MB-435
NCI-H23 lung = tested on: NCI-H23 lung
NCI/ADR-RES ovarian = tested on: NCI/ADR-RES ovarian
OVCAR-8 ovarian = tested on: OVCAR-8 ovarian
M14 melanoma = tested on: M14 melanoma
BT-549 breast = tested on: BT-549 breast
HL-60(TB) leukemia = tested on: HL-60(TB) leukemia
NCI-H226 lung = tested on: NCI-H226 lung
HOP-92 NSCLC = tested on: HOP-92 NSCLC
COLO 205 colon = tested on: COLO 205 colon
NCI-H460 lung = tested on: NCI-H460 lung
LOX IMVI melanoma = tested on: LOX IMVI melanoma
ACHN renal = tested on: ACHN renal
UO-31 renal = tested on: UO-31 renal
OVCAR-5 ovarian = tested on: OVCAR-5 ovarian
OVCAR-3 ovarian = tested on: OVCAR-3 ovarian
HS 578T breast = tested on: HS 578T breast
A498 renal = tested on: A498 renal
DU-145 prostate = tested on: DU-145 prostate
SK-MEL-5 melanoma = tested on: SK-MEL-5 melanoma
UACC-257 melanoma = tested on: UACC-257 melanoma
U251 CNS = tested on: U251 CNS
SF-268 CNS = tested on: SF-268 CNS
MALME-3M melanoma = tested on: MALME-3M melanoma
EKVX NSCLC = tested on: EKVX NSCLC
SF-539 CNS = tested on: SF-539 CNS
CCRF-CEM leukemia = tested on: CCRF-CEM leukemia
SNB-75 CNS = tested on: SNB-75 CNS
SW-620 colon = tested on: SW-620 colon
RXF 393 renal = tested on: RXF 393 renal

For `OC[C@]1(n2nc3ccccc3n2)OC[C@@H]1c1ccccc1`, the TGI (KM12 colon) was greater than 100 µM, the TGI (NCI-H522 lung) was 58.2 µM and the TGI (T-47D breast) was greater than 100 µM. It also gave a TGI (786-0 renal) greater than 100 µM, a TGI (MOLT-4 leukemia) greater than 100 µM and a TGI (HCT-116 colon) greater than 100 µM. It also gave a TGI (HOP-62 NSCLC) greater than 100 µM, a TGI (OVCAR-4 ovarian) of 70.7 µM and a TGI (MDA-N) greater than 100 µM. For the same molecule, the TGI (SR leukemia) was greater than 100 µM, the TGI (SF-295 CNS) was greater than 100 µM and the TGI (MDA-MB-231 breast) was greater than 100 µM. The TGI (UACC-62 melanoma) was greater than 100 µM, the TGI (SK-MEL-2 melanoma) was greater than 100 µM and the TGI (RPMI-8226 leukemia) was 97.4 µM. For the same molecule, the TGI (PC-3 prostate) was greater than 100 µM, the TGI (MCF7 breast) was greater than 100 µM and the TGI (HT29 colon) was greater than 100 µM. For the same molecule, the TGI (SNB-19 CNS) was greater than 100 µM, the TGI (CAKI-1 renal) was greater than 100 µM and the TGI (SN12C renal) was greater than 100 µM. The TGI (HCT-15 colon) was greater than 100 µM, the TGI (A549 NSCLC) was greater than 100 µM and the TGI (IGROV1 ovarian) was greater than 100 µM. The TGI (TK-10 renal) was greater than 100 µM, the TGI (K-562 leukemia) was greater than 100 µM and the TGI (HCC-2998 colon) was greater than 100 µM. The TGI (SK-MEL-28 melanoma) was greater than 100 µM, the TGI (SK-OV-3 ovarian) was greater than 100 µM and the TGI (MDA-MB-435) was greater than 100 µM. For the same molecule, the TGI (NCI-H23 lung) was greater than 100 µM, the TGI (NCI/ADR-RES ovarian) was greater than 100 µM and the TGI (OVCAR-8 ovarian) was greater than 100 µM. For the same molecule, the TGI (M14 melanoma) was greater than 100 µM, the TGI (BT-549 breast) was 99.5 µM and the TGI (HL-60(TB) leukemia) was 93.9 µM. For the same molecule, the TGI (NCI-H226 lung) was greater than 100 µM, the TGI (HOP-92 NSCLC) was greater than 100 µM and the TGI (COLO 205 colon) was greater than 100 µM. It also gave a TGI (NCI-H460 lung) greater than 100 µM, a TGI (LOX IMVI melanoma) greater than 100 µM and a TGI (ACHN renal) greater than 100 µM. The TGI (UO-31 renal) was greater than 100 µM, the TGI (OVCAR-5 ovarian) was greater than 100 µM and the TGI (OVCAR-3 ovarian) was 71.2 µM. For the same molecule, the TGI (HS 578T breast) was greater than 100 µM, the TGI (A498 renal) was greater than 100 µM and the TGI (DU-145 prostate) was greater than 100 µM. The TGI (SK-MEL-5 melanoma) was greater than 100 µM, the TGI (UACC-257 melanoma) was greater than 100 µM and the TGI (U251 CNS) was greater than 100 µM. For the same molecule, the TGI (SF-268 CNS) was greater than 100 µM, the TGI (MALME-3M melanoma) was greater than 100 µM and the TGI (EKVX NSCLC) was greater than 100 µM. The TGI (SF-539 CNS) was 69.2 µM and the TGI (CCRF-CEM leukemia) was greater than 100 µM.
Work on `COC(=O)C1c2c(c3ccccc3n2C(=O)OC)CCN2CCC1C(S(=O)(=O)c1ccccc1)C2=O` (centres undefined) yielded a TGI (KM12 colon) greater than 100 µM, a TGI (NCI-H522 lung) greater than 100 µM and a TGI (T-47D breast) greater than 100 µM. The TGI (786-0 renal) was greater than 100 µM, the TGI (MOLT-4 leukemia) was greater than 100 µM and the TGI (HCT-116 colon) was greater than 100 µM. The TGI (HOP-62 NSCLC) was greater than 100 µM, the TGI (MDA-N) was greater than 100 µM and the TGI (SR leukemia) was greater than 100 µM. For the same molecule, the TGI (SF-295 CNS) was greater than 100 µM, the TGI (MDA-MB-231 breast) was greater than 100 µM and the TGI (SNB-75 CNS) was greater than 100 µM. The TGI (SW-620 colon) was greater than 100 µM, the TGI (UACC-62 melanoma) was greater than 100 µM and the TGI (SK-MEL-2 melanoma) was greater than 100 µM. The TGI (RPMI-8226 leukemia) was greater than 100 µM, the TGI (PC-3 prostate) was greater than 100 µM and the TGI (MCF7 breast) was greater than 100 µM. It also gave a TGI (HT29 colon) greater than 100 µM, a TGI (RXF 393 renal) greater than 100 µM and a TGI (SNB-19 CNS) greater than 100 µM. It also gave a TGI (CAKI-1 renal) greater than 100 µM, a TGI (SN12C renal) greater than 100 µM and a TGI (HCT-15 colon) greater than 100 µM. The TGI (A549 NSCLC) was greater than 100 µM, the TGI (IGROV1 ovarian) was greater than 100 µM and the TGI (TK-10 renal) was greater than 100 µM. For the same molecule, the TGI (K-562 leukemia) was greater than 100 µM, the TGI (SK-MEL-28 melanoma) was greater than 100 µM and the TGI (SK-OV-3 ovarian) was greater than 100 µM. The TGI (MDA-MB-435) was greater than 100 µM, the TGI (NCI-H23 lung) was greater than 100 µM and the TGI (NCI/ADR-RES ovarian) was greater than 100 µM. For the same molecule, the TGI (OVCAR-8 ovarian) was greater than 100 µM, the TGI (M14 melanoma) was greater than 100 µM and the TGI (BT-549 breast) was greater than 100 µM. The TGI (HL-60(TB) leukemia) was greater than 100 µM, the TGI (NCI-H226 lung) was greater than 100 µM and the TGI (HOP-92 NSCLC) was greater than 100 µM. It also gave a TGI (COLO 205 colon) greater than 100 µM, a TGI (NCI-H460 lung) greater than 100 µM and a TGI (LOX IMVI melanoma) greater than 100 µM. It also gave a TGI (UO-31 renal) greater than 100 µM, a TGI (OVCAR-5 ovarian) greater than 100 µM and a TGI (OVCAR-3 ovarian) greater than 100 µM. The TGI (HS 578T breast) was greater than 100 µM, the TGI (A498 renal) was greater than 100 µM and the TGI (DU-145 prostate) was greater than 100 µM. For the same molecule, the TGI (SK-MEL-5 melanoma) was greater than 100 µM, the TGI (UACC-257 melanoma) was greater than 100 µM and the TGI (U251 CNS) was greater than 100 µM. It also gave a TGI (SF-268 CNS) greater than 100 µM, a TGI (MALME-3M melanoma) greater than 100 µM and a TGI (EKVX NSCLC) greater than 100 µM. It also gave a TGI (SF-539 CNS) greater than 100 µM and a TGI (CCRF-CEM leukemia) greater than 100 µM.
`Oc1ccccc1C=Nc1ccc(-c2nc3ccccc3[nH]2)cc1` showed a TGI (KM12 colon) greater than 100 µM, a TGI (NCI-H522 lung) greater than 100 µM and a TGI (T-47D breast) of 66.5 µM. The TGI (786-0 renal) was greater than 100 µM, the TGI (MOLT-4 leukemia) was greater than 100 µM and the TGI (HCT-116 colon) was greater than 100 µM. For the same molecule, the TGI (HOP-62 NSCLC) was greater than 100 µM, the TGI (OVCAR-4 ovarian) was greater than 100 µM and the TGI (MDA-N) was greater than 100 µM. The TGI (SR leukemia) was greater than 100 µM, the TGI (SF-295 CNS) was greater than 100 µM and the TGI (MDA-MB-231 breast) was greater than 100 µM. For the same molecule, the TGI (SNB-75 CNS) was greater than 100 µM, the TGI (SW-620 colon) was greater than 100 µM and the TGI (SK-MEL-2 melanoma) was greater than 100 µM. It also gave a TGI (RPMI-8226 leukemia) greater than 100 µM, a TGI (PC-3 prostate) greater than 100 µM and a TGI (MCF7 breast) greater than 100 µM. It also gave a TGI (HT29 colon) greater than 100 µM, a TGI (RXF 393 renal) greater than 100 µM and a TGI (SNB-19 CNS) greater than 100 µM. The TGI (CAKI-1 renal) was greater than 100 µM, the TGI (SN12C renal) was greater than 100 µM and the TGI (HCT-15 colon) was greater than 100 µM. The TGI (A549 NSCLC) was greater than 100 µM, the TGI (IGROV1 ovarian) was greater than 100 µM and the TGI (TK-10 renal) was greater than 100 µM. It also gave a TGI (K-562 leukemia) greater than 100 µM, a TGI (SK-MEL-28 melanoma) greater than 100 µM and a TGI (SK-OV-3 ovarian) greater than 100 µM. For the same molecule, the TGI (MDA-MB-435) was greater than 100 µM, the TGI (NCI-H23 lung) was greater than 100 µM and the TGI (NCI/ADR-RES ovarian) was 53.2 µM. For the same molecule, the TGI (OVCAR-8 ovarian) was greater than 100 µM, the TGI (M14 melanoma) was greater than 100 µM and the TGI (BT-549 breast) was 54.4 µM. For the same molecule, the TGI (HL-60(TB) leukemia) was greater than 100 µM, the TGI (NCI-H226 lung) was greater than 100 µM and the TGI (HOP-92 NSCLC) was greater than 100 µM. It also gave a TGI (COLO 205 colon) greater than 100 µM, a TGI (NCI-H460 lung) greater than 100 µM and a TGI (LOX IMVI melanoma) greater than 100 µM. For the same molecule, the TGI (ACHN renal) was greater than 100 µM, the TGI (UO-31 renal) was greater than 100 µM and the TGI (OVCAR-5 ovarian) was greater than 100 µM. The TGI (OVCAR-3 ovarian) was greater than 100 µM, the TGI (HS 578T breast) was greater than 100 µM and the TGI (A498 renal) was greater than 100 µM. It also gave a TGI (DU-145 prostate) greater than 100 µM, a TGI (SK-MEL-5 melanoma) greater than 100 µM and a TGI (UACC-257 melanoma) greater than 100 µM. It also gave a TGI (U251 CNS) greater than 100 µM, a TGI (SF-268 CNS) greater than 100 µM and a TGI (MALME-3M melanoma) greater than 100 µM. For the same molecule, the TGI (EKVX NSCLC) was greater than 100 µM, the TGI (SF-539 CNS) was greater than 100 µM and the TGI (CCRF-CEM leukemia) was 71.5 µM.
